Results as given in article PMC4111400 (Journal of Medicinal Chemistry, 2014).
Where two headings read alike, the source gives them in different places.

Columns and labels:
[1] = system: hippocampal kindled seizure; settings: ip; cited from earlier work
[2] = system: subcutaneous Metrazol (scMet) seizure; settings: 10−13; cited from earlier work
[3] = system: Na+ channels in CAD cells; settings: cited from earlier work
[4] = system: Na+ channels in CAD cells; settings: 100 μM; cited from earlier work
[5] = system: Na+ channels in CAD cells; assay: frequency; type: cell-based, mouse; settings: 500 μM (Figure 9 legend: concentrations greater than 500 μM)

COC[C@@H](NC(C)=O)C(=O)NCc1ccccc1 [(R)-1, (R)-N-Benzyl 2-acetamido-3-methoxypropionamide]
ED50, rat hippocampal seizure model [1]: 14 mg/kg | activity in the scMet model [2]: no activity | effect on Na+ channel fast inactivation [3]: did not affect Na^+ channel fast inactivation | frequency (use) inhibition of Na+ currents [4]: not observed notable frequency (use) inhibition of Na^+ currents | frequency (use) inhibition of Na+ currents [5]: significant inhibition of use-dependence
